Experimental findings from BindingDB's records for doi:10.7270/Q2TX3CTT (Broad Institute, 2010) are described below.

Structures can show the parent of a compound that is named as a salt.

The target of the assay is Glycogen synthase kinase-3 beta (Homo sapiens, UniProt P49841). Kind of assay: concentration-response blocking of human GSK3B – biochemical, luminescence, cell-free homogeneous, retest, dose response (AID 434954).
Sequence of Glycogen synthase kinase-3 beta (P49841 whole entry): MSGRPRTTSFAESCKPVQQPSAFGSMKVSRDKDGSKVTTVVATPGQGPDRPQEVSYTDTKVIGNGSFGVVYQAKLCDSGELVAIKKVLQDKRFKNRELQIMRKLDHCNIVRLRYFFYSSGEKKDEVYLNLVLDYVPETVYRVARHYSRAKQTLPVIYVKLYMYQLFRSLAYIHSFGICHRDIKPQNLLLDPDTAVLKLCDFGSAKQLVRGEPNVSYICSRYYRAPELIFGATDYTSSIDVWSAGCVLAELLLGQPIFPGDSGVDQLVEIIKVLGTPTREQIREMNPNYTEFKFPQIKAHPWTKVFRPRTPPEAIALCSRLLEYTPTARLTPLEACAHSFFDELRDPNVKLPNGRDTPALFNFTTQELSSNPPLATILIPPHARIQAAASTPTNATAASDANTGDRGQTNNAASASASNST
As for `CCCn1nc(NC(=O)C(C)(C)C)c2cc3cc(OC)ccc3nc21` [N-(6-methoxy-1-propylpyrazolo[3,4-b]quinolin-3-yl)-2,2-dimethylpropanamide], it took 63.8 µM to reach a half-maximal effect (EC50).

For `COc1cccc2cc(C(=O)Oc3ccccc3)c(=O)oc12` [MLS000999696], the EC50 – broadly, the midpoint of the concentration-response curve – was more than 300 µM. Compound `COc1cc(C(=O)OCC(=O)NC(N)=O)cc(CN2C(=O)c3ccccc3C2=O)c1OC` gave an EC50 of more than 300 µM. As to `CCCN(CCC)Cc1c(C(=O)NN=Cc2ccoc2)nnn1-c1nonc1N` [1-(4-amino-1,2,5-oxadiazol-3-yl)-5-[(dipropylamino)methyl]-N-(3-furanylmethylideneamino)-4-triazolecarboxamide], a half-maximal effect (EC50) was put at 8.52 µM. As for `CCc1ccc(CN=Nc2ncnc3nc[nH]c23)cc1` [MLS000419199], a half-maximal effect (EC50) was put at 26.6 µM. In turn, `CC(=O)Nc1ccc(S(=O)(=O)c2cc(O)ccc2O)cc1` showed an EC50 of more than 300 µM. `Clc1cccc(Nc2nc(-c3ccncc3)nc3ccccc23)c1` registered a 50% effective concentration (EC50) of 56.8 µM. With `CCN(CC)C(=O)CSc1nc(N)c(C#N)c(-c2cccs2)c1C#N` [SMR000115110], the EC50 is more than 300 µM. Compound `COc1ccc(-c2cc(C(=O)N3CCN(C(=O)c4ccco4)CC3)[nH]n2)cc1` [SMR000623613] displayed an EC50 of more than 300 µM. In turn, `COc1ccc(-c2noc(CSc3nnc(-c4ccccc4)n3C)n2)cc1` [3-(4-methoxyphenyl)-5-[(4-methyl-5-phenyl-1,2,4-triazol-3-yl)sulfanylmethyl]-1,2,4-oxadiazole] gave an EC50 of more than 300 µM.

`COCCn1c(SCC(=O)Nc2ncc(Cl)c(C)c2Cl)nc2ccccc21` [MLS000097567] gave an EC50 of more than 300 µM. The compound `CCOC(=O)COn1c(=O)c(-c2cccs2)[n+]([O-])c2ccccc21` displayed an EC50 of more than 300 µM. Then `CN1CCN(C(=O)CCS(=O)(=O)c2cc3c(cc2Cl)NC(=O)CO3)CC1` [SMR000627499], with more than 300 µM; and `COc1ccc(OC)c(C(=O)c2coc3ccc(O)c(CN(C)C)c23)c1` [(2,5-dimethoxyphenyl)-[4-[(dimethylamino)methyl]-5-oxidanyl-1-benzofuran-3-yl]methanone;hydrochloride], with more than 300 µM; and `Cc1cccc(Nc2nc(N3CCN(C)CC3)nc(N)c2[N+](=O)[O-])c1` [N4-(3-methylphenyl)-2-(4-methylpiperazin-1-yl)-5-nitro-pyrimidine-4,6-diamine], with more than 300 µM. Then `NC(=O)CSc1nnc(COc2ccc3ccccc3c2)o1` [MLS001203608], with more than 300 µM; and `Cc1ccc(NC(=S)NC2CC3CCC(C2)N3Cc2ccco2)c(C)c1` (stereo not given) [1-(2,4-dimethylphenyl)-3-[8-(2-furanylmethyl)-8-azabicyclo[3.2.1]octan-3-yl]thiourea], with more than 300 µM; and `Cc1ccc(C(=O)O/N=C(\N)c2ccccn2)c(Cl)c1` [MLS001206211], with 26.2 µM. The compound `COc1cc(/C=C/c2nc3ccc([N+](=O)[O-])cc3s2)ccc1OCC(=O)O` [SMR000365317] gave an EC50 of more than 300 µM. `CN1CCc2c(sc3c2C(=O)NC(c2cccs2)N3)C1` (stereo not given) came in with an EC50 of more than 300 µM.

Take `O=C(NCCCN1CCCC1=O)c1c(O)n2ccsc2nc1=O` [5-hydroxy-7-oxo-N-[3-(2-oxo-1-pyrrolidinyl)propyl]-6-thiazolo[3,2-a]pyrimidinecarboxamide]: the EC50 is more than 300 µM.

As for `O=C(C(Cc1ccccc1)n1cccc1)N1CCN(c2cccc(Cl)c2)CC1` (stereo not given) [SMR000127921], the EC50 was more than 300 µM. `Cc1ccc(C(C(=O)NC2CCCCC2)N(CC2CCCO2)C(=O)CNC(=O)c2cccs2)cc1` (stereo not given) [N-[2-[[2-(cyclohexylamino)-1-(4-methylphenyl)-2-oxoethyl]-(oxolan-2-ylmethyl)amino]-2-oxoethyl]thiophene-2-carboxamide] displayed an EC50 of more than 300 µM.

In turn, `O=C(NCc1cccs1)c1cc(C2CC2)on1` [SMR000127641] gave an EC50 of more than 300 µM. Regarding `COc1ccc(OC)c(-c2cc(-c3cccnc3)nc(N)c2C#N)c1` [2-amino-4-(2,5-dimethoxyphenyl)-6-pyridin-3-ylpyridine-3-carbonitrile], the EC50 is more than 300 µM.

The compound `COc1ccc(-n2c(Cc3cccn3C)nnc2SCC(=O)NCC2CCCO2)cc1` (stereo not given) [2-[[4-(4-methoxyphenyl)-5-[(1-methylpyrrol-2-yl)methyl]-1,2,4-triazol-3-yl]sulfanyl]-N-(oxolan-2-ylmethyl)acetamide] showed an EC50 of more than 300 µM. As to `Nc1nnc(CC(=O)NN=Cc2ccccc2OCc2ccc(F)cc2)s1` [SMR000420435], the EC50 was more than 300 µM. Then `Cc1cnc(NC(=O)c2sc(Nc3ccccc3)nc2N)o1` [MLS000762724], with 9.59 µM; and `CNCCCOc1cc(C)cc(C)c1C` [N-methyl-3-(2,3,5-trimethylphenoxy)propan-1-amine;oxalic acid], with more than 300 µM. The compound `COC(=O)c1ccc(NC(=O)CCN2CCN(Cc3ccccc3)CC2)cc1` [4-[3-(4-Benzyl-piperazin-1-yl)-propionylamino]-benzoic acid methyl ester] gave an EC50 of more than 300 µM.

`CC(C(=O)NCC1CCCO1)n1cc([N+](=O)[O-])cn1` (stereo not given) [SMR000296777] registered an EC50 of more than 300 µM.

`CC1=C(C(=O)OCC2CCCO2)C(c2ccsc2)C2C(=O)CC(C)(C)CC2=N1` (stereo not given) [SMR000279706] returned an EC50 of more than 300 µM. Under `CC1(C)CC(=O)C=C(Nc2cccc(C(F)(F)F)c2)C1` [5,5-dimethyl-3-[[3-(trifluoromethyl)phenyl]amino]cyclohex-2-en-1-one] stands more than 300 µM. As to `N#Cc1c(-c2ccc(F)cc2)nc(-c2ccccc2)[nH]c1=O`, the EC50 was more than 300 µM. As to `O=C(NCCO)Nc1ccc2nsnc2c1` [MLS000708760], the EC50 was more than 300 µM. `CCCN(CCC)Cc1c(C(=O)NN=Cc2ccncc2)nnn1-c1nonc1N` [1-(4-amino-1,2,5-oxadiazol-3-yl)-5-[(dipropylamino)methyl]-N-(pyridin-4-ylmethylideneamino)triazole-4-carboxamide]: the EC50 stood at 0.879 µM.

In turn, `NC1=N/C(=N\c2ccccc2)c2ccccc21` [MLS000057025] displayed an EC50 of more than 300 µM. Turning to `Nc1ncnc2c1ncn2[C@@H]1O[C@H](CO)[C@@H](O)[C@H]1N`, the EC50 is more than 300 µM. As for `COc1ccc(-c2cn3c(C)c(C(=O)Nc4ccncc4)sc3n2)cc1` [6-(4-methoxyphenyl)-3-methyl-N-(4-pyridyl)imidazo[2,1-b]thiazole-2-carboxamide], the EC50 was more than 300 µM. Then `CC(CC(=O)Nc1ccc2c(c1)OCO2)=NNC(=O)c1ccc(N)cc1` [MLS001042207], with more than 300 µM. `COc1ccc(C(=O)OCCc2sc[n+](CC(=O)c3ccccc3)c2C)cc1` [4-methoxybenzoic acid 2-(4-methyl-3-phenacyl-5-thiazol-3-iumyl)ethyl ester;bromide] displayed an EC50 of 26 µM.

Consider `Cc1nnc(SCC(=O)Nc2ccc(Cl)cn2)[nH]c1=O` [N-(5-chloro-2-pyridinyl)-2-[(6-methyl-5-oxo-2H-1,2,4-triazin-3-yl)thio]acetamide], for which the midpoint of the response, the EC50, lay at 36.7 µM. For `O=C1N=C(Nc2ccccc2)SC1=Cc1cccnc1` [MLS000768418], the EC50 was more than 300 µM.

For `O=C(NCC(c1ccco1)N1CCc2ccccc2C1)c1ccccc1Cl` (stereo not given) [2-chloro-N-[2-(3,4-dihydro-1H-isoquinolin-2-yl)-2-(2-furanyl)ethyl]benzamide], the EC50 was more than 300 µM. As for `COC(=O)c1ccccc1OCCOc1ccccc1C(=O)OC`, the EC50 is more than 300 µM. For the compound `CC(C)Nc1nnc(SCC(=O)NCc2ccc3c(c2)OCO3)s1` [SMR000375706], the EC50 is more than 300 µM. Consider `COc1ccc(C(=O)c2sc(Nc3ccccc3)nc2C)cc1` [MLS001181792], for which a half-maximal response (EC50) required 32.1 µM.

The compound `CC1CCCC(C)N1C(=O)CN1C(=O)C(C)(C)Oc2ccc(C(=O)NC3CCCC3)cc21` (stereo not given) had an EC50 of more than 300 µM. In the case of `CCOC(=O)CSc1ccc2nnc(CCNS(=O)(=O)c3ccccc3)n2n1` [ethyl [(3-{2-[(phenylsulfonyl)amino]ethyl}[1,2,4]triazolo[4,3-b]pyridazin-6-yl)thio]acetate], the EC50 is more than 300 µM. In the case of `COc1cc(OC)c2c(-c3ccccc3)cc(=O)oc2c1` [5,7-dimethoxy-4-phenyl-chromen-2-one], the EC50 was more than 300 µM. Under `Cc1nc2nc(=O)c3c(n2[nH]1)NC1=C(C(=O)CC(C)(C)C1)C3c1ccccc1` (stereo not given) [MLS000084334] stands more than 300 µM. Then `Cc1ccc(C(=O)/[O+]=N/[CH-]c2ccc(N3CCCCC3)c([N+](=O)[O-])c2)cc1` [[(3-nitro-4-piperidin-1-ylphenyl)methylideneamino] 4-methylbenzoate], with more than 300 µM. Turning to `CC(Cc1c[nH]c2ccccc12)NC(=O)OCCCl` (stereo not given), the EC50 was more than 300 µM. Regarding `Cc1ccc(CNc2nc(N)c([N+](=O)[O-])c(Nc3cccc(F)c3)n2)cc1` [SMR000148340], the EC50 was more than 300 µM.

`c1ccc(CSc2nnc(-c3cccnc3)o2)cc1` [3-(5-Benzylsulfanyl-[1,3,4]oxadiazol-2-yl)-pyridine] came in with an EC50 of more than 300 µM. Consider `COc1cccc(CNC(=O)C2CCN(S(=O)(=O)c3ccc(-n4cnnn4)cc3)CC2)c1` [SMR000600329], for which the EC50 was more than 300 µM.

In turn, `CCCCCOC(=O)C1C(C)=Nc2ncnn2C1c1cccs1` (stereo not given) showed an EC50 of more than 300 µM. On to `COc1cccc2cc(CC(=O)c3ccc(C)cc3C)c(=O)oc12` [3-[2-(2,4-dimethylphenyl)-2-oxoethyl]-8-methoxychromen-2-one], for which the EC50 was more than 300 µM. Under `CC(C)CC(CO)N1CCN(C(=O)c2ccc(Cl)c(Cl)c2)CCC1=O` (stereo not given) [1-(3,4-dichlorobenzoyl)-4-(1-hydroxy-4-methylpentan-2-yl)-1,4-diazepan-5-one] stands more than 300 µM; under `CC(C)C(=O)NC(C)C(c1cccs1)N1CCN(c2ccccc2)CC1` (stereo not given) [SMR000016589], more than 300 µM.

For the compound `CCN1CCN(CC2COc3ccccc3O2)CC1` (stereo not given) [MLS001173643], the EC50 is more than 300 µM. `COc1cc(-c2n[nH]c3c2C(c2ccco2)C(C#N)C(=N)O3)cc(OC)c1OC` (stereo not given) [MLS000698887]: the EC50 amounted to 8.59 µM. Under `CC1=NC2=C(C(=O)CC(C)(C)C2)C(c2ccc(O)cc2)C1C#N` (stereo not given) stands more than 300 µM; under `CC1(C)Nc2ccc(O)cc2-c2c1ssc2=S` [SMR000038969], 21.4 µM; under `CON=C(CNC(=O)c1ccc(Cl)cc1Cl)c1ccc(Cl)cc1` [SMR000179199], more than 300 µM.
